Assay results published in PMC7316490, “Dihydrofolate Reductase Is a Valid Target for Antifungal Development in the Human Pathogen Candida albicans” (mSphere, 2020).
In brackets after ≈: the same amount, converted by molar mass.

Assays:
[1] = system: wild-type C. albicans strain (SC5314); assay: Antifungal susceptibility testing (dose-response growth, OD600); type: cell-based, Candida albicans; settings: for MIC50: Candida albicans
Procedure: A wild-type C. albicans strain (SC5314) was seeded at 1 × 10^4 cells/ml into YNB medium without folate or PABA with the indicated supplements and increasing concentrations of MTX. After 48 h of incubation at 30°C, growth was quantified as the OD600 value and expressed as a percentage of the value for the DMSO-treated control. The values presented here are the average of two replicates and are representative of two independent experiments.
Approximately 1 × 10^4 cells/ml of a wild-type C. albicans strain was seeded into a 96-well plate with increasing concentrations of MTX in YNB pH 5, YNB pH 7, and RPMI pH 7 media. After 48 h, the OD600 was measured and expressed as a percentage of the value for the DMSO-treated control. The results presented here are the averages of two replicates and are representative of two independent experiments.
Stock solutions of MTX were prepared at 10 mM in dimethyl sulfoxide (DMSO) and diluted as needed in the same solvent. […] The final concentration of DMSO was 0.5% for all treatments. Plates were then incubated at 30°C before growth was quantified after 24 and 48 h by measuring the OD600 using a Cytation 5 plate reader (Bio-Tek Instruments, Inc.). MIC50 values were identified visually using the CLSI antifungal susceptibility assay and then confirmed by quantifying growth by the OD600 value. The growth of each strain at each drug concentration was then expressed relative to that of the DMSO-alone control. The susceptibility to MTX at the highest concentration at each pH was compared to that of the other pH values using a two-tailed Student's t test.

[2] = system: C. albicans cdr1Δ/Δ, tac1Δ/Δ and mdr1Δ/Δ mutants; assay: Antifungal susceptibility testing of efflux pump mutants; type: cell-based, Candida albicans; settings: for MIC50: Candida albicans
Procedure: C. albicans cdr1Δ/Δ (A), tac1Δ/Δ (B), or mdr1Δ/Δ (C) strains, or that overexpress CDR1 (A), TAC1 (B), or MDR1 (C) from the PTEF1 promoter, were subcultured to approximately 1 × 10^4 cells/ml into YNB medium at pH 5 or pH 7 supplemented with a range of MTX concentrations. After 48 h at 30°C, growth was quantified as the OD600 value and expressed as a percentage of the value for the untreated wells. The values presented here are the average of two replicates and are representative of two independent experiments. WT, wild type.
(§1) Stock solutions of MTX were prepared at 10 mM in dimethyl sulfoxide (DMSO) and diluted as needed in the same solvent. Each C. albicans strain was grown overnight in YPD medium at 30°C and diluted to approximately 1 × 10^4 cells/ml in YNB medium or RPMI 1640 medium, and 100 μl of each cell suspension was transferred to the wells of a round-bottom 96-well plate. An additional 100 μl of YNB or RPMI 1640 medium containing 2× the final desired concentration of MTX was then added to each well. The final concentration of DMSO was 0.5% for all treatments. Plates were then incubated at 30°C before growth was quantified after 24 and 48 h by measuring the OD600 using a Cytation 5 plate reader (Bio-Tek Instruments, Inc.). MIC50 values were identified visually using the CLSI antifungal susceptibility assay and then confirmed by quantifying growth by the OD600 value. The growth of each strain at each drug concentration was then expressed relative to that of the DMSO-alone control. The susceptibility to MTX at the highest concentration at each pH was compared to that of the other pH values using a two-tailed Student's t test.

Candida tropicalis = assay: Antifungal susceptibility testing, other species; type: cell-based; settings: YNB medium at pH 5 and pH 7
Procedure: (§2) Strains of C. albicans (A), C. glabrata (B), C. tropicalis (C), and C. parapsilosis (D) were seeded into YNB medium buffered at pH 5 or pH 7 at approximately 1 × 10^4 cells/ml in the presence of a range of MTX concentrations. After 48 h at 30°C, growth was quantified as the OD600 and expressed as a percentage of the value for the untreated controls. The values presented here are the average of two replicates and are representative of two experiments. The susceptibility to MTX at the highest concentration at each pH was compared to that of the other pH values using a two-tailed Student's t test (*, P < 0.01; **, P < 0.0001).
as §1

Candida parapsilosis = assay: Antifungal susceptibility testing, other species; type: cell-based; settings: YNB medium at pH 5 and pH 7
Procedure: as §2, §1

Candida glabrata = assay: Antifungal susceptibility testing, other species; type: cell-based; settings: YNB medium at pH 5 and pH 7
Procedure: as §2, §1

Work on `CN(Cc1cnc2nc(N)nc(N)c2n1)c1ccc(C(=O)N[C@@H](CCC(=O)O)C(=O)O)cc1` [Methotrexate, methotrexate] yielded an MIC50 ([1]; SC5314, YNB medium with additional supplements of folic acid (up to 25 μM)) of 0.078 µM (≈ 0.0354 µg/mL), an MIC50 ([1]; SC5314, YNB with addition of 250 μM folinic acid) of ~5 µM (≈ 2.27 µg/mL) and an MIC50 ([1]; SC5314, pH 5, YNB pH 5 medium) of ~0.78 µM (≈ 0.354 µg/mL). The MIC50 ([1]; SC5314, pH 7, RPMI 1640 pH 7 medium) was > 50 µM, the MIC50 ([1]; SC5314, pH 7, YNB pH 7 medium) was > 50 µM and the MIC50 ([1]; SC5314, unbuffered standard YNB medium) was ~0.78 µM (≈ 0.354 µg/mL). For the same compound, the “effect of 1 μM DHF, THF or 5MTHF supplement on MTX-mediated growth inhibition” value ([1]; YNB medium) was “had no effect”, the “drop of MIC50 with folic acid supplements” value ([1]; versus standard YNB medium) was ~10 fold and the MIC50 ([2]; pH 5) was 0.39 µM (≈ 0.177 µg/mL). For the same compound, the MIC50 ([2]; pH 7) was > 6.25 µM, the “susceptibility of mdr1Δ/Δ mutant versus MDR1+ control strains” value ([2]; YNB medium at pH 5 or 7) was “not significantly different” and the “growth inhibition (in words)” value (Candida tropicalis) was “modest and pH-dependent growth inhibition”. For the same compound, the “growth inhibition (in words)” value (Candida parapsilosis) was “modest and pH-dependent growth inhibition” and the “growth inhibition (in words)” value (Candida glabrata) was “insensitive at either pH”.
